Test results as given in patent EP0369035A1, “AGENT FOR TREATING PANCREATITIS OR THE LIKE” (priority 1988, dated 1989).

Experiments:
human plasmin [1] = target: T1, human plasmin (Homo sapiens, UniProt P00747); experiment: Anti-plasmin activity: inhibition of S-2251 degradation; assay type: biochemical; conditions: substrate S-2251, 37°C, pH7.4; read-out: Plasmin S-2251 (I50)
T1 construct: 50 µl of 0.2 casein units/ml of human plasmin
Experimental: ii) Assay method of inhibition of S-2251 degradation
The test substance was dissolved in a 0.05 M Tris-HC1 (pH7.4) buffer to make a total volume of 400 µl, and 50 µl of a 3 mM S-2251 solution was added to the solution. The mixture was incubated at 37°C for 5 minutes in an incubator, and after the addition of 50 µl of 0.2 casein units/ml of human plasmin, and incubation at 37°C for 4 minutes, the reaction was terminated by an addition of 50 µl of 50% acetic acid.

human plasmin [2] = target: T1, human plasmin; experiment: Anti-plasmin activity: inhibition of fibrinolysis (fibrin clot lysis time); assay type: biochemical; conditions: concentration giving a fibrin clot lysis time twice that of control, 37°C, pH7.4; read-out: Plasmin Fibrin (I50)
human plasma kallikrein = target: T2, human plasma kallikrein (Homo sapiens, UniProt P03952); experiment: Anti-plasma kallikrein activity: inhibition of S-2302 degradation; assay type: biochemical; conditions: substrate S-2302, 37°C, pH 7.8; read-out: Plasma kallikrein S-2302 (I50)
T2 construct: 50 µl of 0.12 units/ml human plasma kallikrein solution
Experimental: 2) Assay of anti-plasma kallikrein activity Assay method of inhibition of S-2302 degradation
(§1) The test substance was dissolved in a 0.05 M Tris-HC1 (pH 7.8) buffer to make a total volume of 400 µl, and 50 µl of a 2 mM S-2302 solution was added to the solution. After incubation at 37°C for 5 minutes in an incubator, an addition of 50 µl of 0.12 units/ml human plasma kallikrein solution, and incubation at 37°C for 5 minutes, the reaction was terminated by an addition of 50 µl of 50% acetic acid.

human urokinase = human urokinase (Homo sapiens, UniProt P00749); experiment: Anti-urokinase activity: inhibition of S-2444 degradation; assay type: biochemical; conditions: substrate S-2444, 37°C, pH 8.8; read-out: Urokinase S-2444 (I50)
Experimental: 3) Assay of anti-urokinase activity Assay method of inhibition of S-2444 degradation
as §1, with “8.8)” for “7.8)”, “1” for “2”, “S-2444” for “S-2302”, “mixture.” for “solution.”, “500” for “0.12”, “urokinase” for “plasma kallikrein”

bovine factor Xa = target: T3, bovine factor Xa (Bos taurus, UniProt P00743); experiment: Anti-FXa activity: inhibition of S-2222 degradation; assay type: biochemical; conditions: substrate S-2222, 37°C, pH 8.3; read-out: FXa S-2222 (I50)
T3 construct: 0.05 ml of 0.3 vial/ml bovine factor Xa
Experimental: 4) Assay of anti-FXa activity Assay method of inhibition of S-2222 degradation
To 0.4 ml of the test substance dissolved in a 0.05 M Tris-HC1 (pH 8.3) buffer is added 0.05 ml of 3 mM S-2222 solution, and after incubation at 37°C for about 4 minutes, an addition of 0.05 ml of 0.3 vial/ml bovine factor Xa, and a reaction at 37°C for 4 minutes, the - reaction was terminated by adding 0.05 ml of 50% acetic acid.

experimental DIC = experiment: Effect on experimental DIC and MOF (endotoxin-induced); assay type: in vivo, SD-rats; conditions: Dose 10 μg/kg/min infusion, rat, 4 hours after endotoxin 10 mg/kg
Experimental: [III] Effect on experimental DIC
SD-rats, body weight of about 200 g, were starved overnight. Sodium pentobarbital was intraperioneally administered to anesthetize a rat, and then a cannula was inserted to the femoral vein, and the test substance dissolved in an injective 5% glucose solution was continually infused. Then, 10 minutes from the start of the injection, endotoxin (E. coli 0127:B8, Difco, U.S.) dissolved in physiological saline was injected through the tail vein to an amount of 10 mg/kg body weight, and 4 hours from the administration of endotoxin, the abdomen was opened, blood was obtained from the abdominal aorta, and platelets (Plt), fibrinogen (Fbg), fibrin degradation product (FDP), glutamic oxaloacetic transamirase (GOT), creatinine phosphokinase (CPK), and blood urin nitrogen (BUN) were measured.

experimental shock = experiment: Effect on experimental shock (endotoxin-induced), survival ratio; assay type: in vivo, ICR-mice; conditions: dose of 30 mg/kg intraperitoneally 15 minutes before endotoxin 40 mg/kg, mouse
Experimental: [IV] Effect on experimental shock
ICR-mice, body weight of about 25 g, were starved overnight. The test substance was dissolved in an injective 5% glucose solution and intraperioneally administered, and 15 minutes later, endotoxin (E. coli 0127:B8, Difco, U.S.) dissolved in a physiological saline was intraperioneally administered to an amount of 40 mg/kg body weight.

in vivo = conditions: mouse, intravenous, ICR male mice, up-and-down method, read-out: Acute toxicity (LD50)
Experimental: ICR male mice 5 to 10 weeks old were used. The test substance was dissolved in a 5% dimethylsulfoxide aqueous solution, and the solution was intravenously administered in an amount of 0.1 to 0.2 ml/10 g body weight. An LD50 value was calculated by up-and-down method.

[3] = system: experimental pancreatitis; experiment: Effect on experimental pancreatitis (sodium taurochorate + trypsin into the common bile duct), survival ratio; assay type: in vivo, SD-rats; design: Effect on experimental pancreatitis (100 mg/kg p.o.) After 24 hours / Effect on experimental pancreatitis (100 mg/kg p.o.) After 48 hours / Effect of existing control drug on experimental pancreatitis After 24 hours: unit not given here; conditions: rat; for Effect on experimental pancreatitis Survival ratio(%) After 24 hours / Effect on experimental pancreatitis Survival ratio(%) After 48 hours: 80 μg/kg/min. x 80 min. continuous infusion; for Effect on experimental pancreatitis (100 mg/kg p.o.) After 24 hours / Effect on experimental pancreatitis (100 mg/kg p.o.) After 48 hours: survival ratio, 100 mg/kg p.o. 30 minutes before pancreatitis
Description: [II] Effect on experimental pancreatitis
SD-rats, body weight of about 200 g were, starved overnight, and 10 to 24 animals were used in one group. Sodium pentobarbital was intraperioneally administered to anesthetize each rat, and then a cannula was inserted to the femoral vein for the administration of the test substance. After abdominal surgery, the bile duct was blocked at a part thereof proximate to the liver, by a clip, a polyethylene tube was inserted to the common bile duct at a part thereof most proximate to the duodenum, and 0.1 ml of solution containing 2 mg sodium taurochorate and 1000 U trypsin dissolved in physiological saline was injected retrogrodely. After removal of the clip and tube, the common bile duct was ligated and the abdomen was closed. Note, the test substance was dissolved in an injective 5% glucose solution, and in the case of a continuous infusion, the solution was administered over 80 minutes starting from 10 minutes before the generation of pancreatitis. In the case of oral administration, the test substance was administered through an oral catheter 30 minutes before the generation of pancreatitis. After 24 hours and 48 hours from the generation of pancreatitis, the survival ratio of the animals was calculated and compared with a control group.

[4] = Measurement of half life in blood; assay type: in vivo; conditions: rat, iv; administered to the tail vein, SD-rats, plasma, HPLC
Experimental: [VI] Measurement of half life in blood
SD-rats 6 to 7 weeks old were used. The test substance was dissolved in an injective 5% glucose solution and administered to the tail vein. After the administration, blood samples were periodically obtained from the great vein and placed into heparinized test tubes. Plasma was separated by centrifugation and the test substance was extracted with ethyl acetate. After removal of the solvent, the residue was dissolved in 200 µl of methanol, and analyzed by high performance liquid chromatography. From the change of the concentration of the test substance in blood with time, a half life thereof in blood was calculated.

T3 sequence (P00743 234-492 limits assumed): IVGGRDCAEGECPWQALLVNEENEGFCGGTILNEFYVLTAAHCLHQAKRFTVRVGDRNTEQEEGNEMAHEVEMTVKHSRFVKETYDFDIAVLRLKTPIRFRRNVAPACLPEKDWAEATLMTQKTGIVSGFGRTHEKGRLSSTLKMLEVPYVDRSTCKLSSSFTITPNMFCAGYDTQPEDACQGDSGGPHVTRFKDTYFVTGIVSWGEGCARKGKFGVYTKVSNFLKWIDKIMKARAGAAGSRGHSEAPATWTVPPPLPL
T3 sequence (P00743 41-180 partner limits assumed): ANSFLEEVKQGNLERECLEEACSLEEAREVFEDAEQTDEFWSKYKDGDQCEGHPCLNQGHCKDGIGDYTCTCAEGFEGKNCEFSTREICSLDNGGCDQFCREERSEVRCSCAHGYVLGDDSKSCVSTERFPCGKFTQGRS
T1 sequence (P00747 581-810 limits assumed): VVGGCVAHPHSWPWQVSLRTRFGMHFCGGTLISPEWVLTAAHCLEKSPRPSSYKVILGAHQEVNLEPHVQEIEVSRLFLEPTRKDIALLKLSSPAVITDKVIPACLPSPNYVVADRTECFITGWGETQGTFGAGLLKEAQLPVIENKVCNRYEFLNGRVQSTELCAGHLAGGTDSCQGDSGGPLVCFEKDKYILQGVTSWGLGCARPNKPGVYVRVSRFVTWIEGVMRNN
T1 sequence (P00747 97-580 partner limits assumed): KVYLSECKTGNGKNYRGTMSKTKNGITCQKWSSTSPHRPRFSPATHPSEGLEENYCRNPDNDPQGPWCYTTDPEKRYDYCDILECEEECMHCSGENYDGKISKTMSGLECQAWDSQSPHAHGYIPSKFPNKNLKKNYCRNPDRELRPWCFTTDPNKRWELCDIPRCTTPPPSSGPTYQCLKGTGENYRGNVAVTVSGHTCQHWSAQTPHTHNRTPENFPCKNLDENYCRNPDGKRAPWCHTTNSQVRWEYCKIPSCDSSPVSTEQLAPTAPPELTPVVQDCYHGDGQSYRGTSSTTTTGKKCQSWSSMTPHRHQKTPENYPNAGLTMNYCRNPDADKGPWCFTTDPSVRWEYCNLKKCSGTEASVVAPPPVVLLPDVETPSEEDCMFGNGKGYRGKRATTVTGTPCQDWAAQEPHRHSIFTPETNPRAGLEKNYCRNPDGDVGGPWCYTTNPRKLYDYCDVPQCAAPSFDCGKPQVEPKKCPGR
T2 sequence (P03952 391-638 limits assumed): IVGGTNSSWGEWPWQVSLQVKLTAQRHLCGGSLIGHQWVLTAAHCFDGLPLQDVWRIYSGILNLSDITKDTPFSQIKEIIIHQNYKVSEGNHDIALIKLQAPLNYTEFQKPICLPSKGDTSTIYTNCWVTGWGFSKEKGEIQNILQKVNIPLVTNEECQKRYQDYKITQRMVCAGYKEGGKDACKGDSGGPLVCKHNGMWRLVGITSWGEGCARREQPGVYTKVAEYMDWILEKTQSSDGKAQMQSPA
T2 sequence (P03952 20-390 partner limits assumed): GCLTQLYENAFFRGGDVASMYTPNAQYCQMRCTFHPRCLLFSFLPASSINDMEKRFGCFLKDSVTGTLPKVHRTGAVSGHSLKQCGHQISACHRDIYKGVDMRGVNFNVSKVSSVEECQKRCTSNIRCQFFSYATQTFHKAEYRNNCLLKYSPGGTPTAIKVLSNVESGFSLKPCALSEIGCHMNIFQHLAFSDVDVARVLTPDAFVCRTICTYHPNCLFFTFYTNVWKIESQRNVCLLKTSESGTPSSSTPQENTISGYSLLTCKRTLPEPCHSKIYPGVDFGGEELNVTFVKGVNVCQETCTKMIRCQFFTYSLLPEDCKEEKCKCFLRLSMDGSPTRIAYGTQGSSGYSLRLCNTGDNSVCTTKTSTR

For `CC(=O)c1ccc(NC(=O)[C@H](Cc2ccc(OCc3cccc(Cl)c3)cc2)NC(=O)[C@H]2CC[C@H](CN)CC2)cc1` [Compound 3], the IC50 (human plasmin [1]) was 0.8 µM, the IC50 (human plasmin [2]) was 0.1 µM and the IC50 (human plasma kallikrein) was 0.38 µM. For the same compound, the IC50 (human urokinase) was 40 µM, the IC50 (bovine factor Xa) was 35 µM and the BUN (experimental DIC) was 40 ± 5 mg/dL. The FDP (experimental DIC) was 8 to 64 µg/mL, the Fbg (experimental DIC) was 160 ± 13 mg/dL and the GOT (experimental DIC) was 133 ± 4 U/ml. The Plat (experimental DIC) was 78 ± 7 x 10^4/μl, the CPK (experimental DIC; Table 5-1) was 14 ± 2 U/1 and the “Effect on experimental shock (Survival ratio (%) after 24 hours)” value (experimental shock) was 67%. For the same compound, the LD50 (in vivo) was > 100 mg/kg.

In the case of `NC[C@H]1CC[C@H](C(=O)N[C@@H](Cc2ccc(OCc3ccccc3)cc2)C(=O)Nc2cccnc2)CC1` [Compound 1], the IC50 (human plasmin [1]) is reported as 6.1 µM, the IC50 (human plasmin [2]) is reported as 2.9 µM and the IC50 (human plasma kallikrein) is reported as 1.7 µM. For the same compound, the IC50 (human urokinase) was 45 µM, the “Effect on experimental pancreatitis Survival ratio(%) After 24 hours” value [3] was 55.5% and the “Effect on experimental pancreatitis Survival ratio(%) After 48 hours” value [3] was 29.1%. It also gave a BUN (experimental DIC) of 28 ± 3 mg/dL, an FDP (experimental DIC) of 16 to 32 µg/mL and a Fbg (experimental DIC) of 146 ± 7 mg/dL. For the same compound, the GOT (experimental DIC) was 299 ± 63 U/ml, the Plat (experimental DIC) was 65 ± 6 x 10^4/μl and the “Effect on experimental shock (Survival ratio (%) after 24 hours)” value (experimental shock) was 82%. For the same compound, the LD50 (in vivo) was 70 mg/kg and the half-life [4] was 15.3 min.

Compound `NCC1CCC(C(=O)NC(Cc2ccc(OCc3ccccn3)cc2)C(=O)Nc2ccc(C(=O)O)cc2)CC1` (stereo not drawn) [Compound 20] has an IC50 (human plasmin [1]) of 65 µM, an IC50 (human plasmin [2]) of 32 µM and an IC50 (human plasma kallikrein) of 1.4 µM. For the same compound, the IC50 (bovine factor Xa) was 700 µM, the “Effect on experimental pancreatitis Survival ratio(%) After 24 hours” value [3] was 58.3% and the “Effect on experimental pancreatitis Survival ratio(%) After 48 hours” value [3] was 41.7%. For the same compound, the “Effect on experimental pancreatitis (100 mg/kg p.o.) After 24 hours” value [3] was 58.3, the “Effect on experimental pancreatitis (100 mg/kg p.o.) After 48 hours” value [3] was 41.7 and the LD50 (in vivo) was > 100 mg/kg. It also gave a half-life [4] of 14 min.

`NC[C@H]1CC[C@H](C(=O)N[C@@H](Cc2ccc(OCc3ccccc3)cc2)C(=O)Nc2ccc(CC(=O)O)cc2)CC1` [Compound 8] showed an IC50 (human plasmin [1]) of 25 µM, an IC50 (human plasmin [2]) of 9.2 µM and an IC50 (human plasma kallikrein) of 3 µM. For the same compound, the IC50 (human urokinase) was 260 µM, the IC50 (bovine factor Xa) was 290 µM and the “Effect on experimental pancreatitis Survival ratio(%) After 24 hours” value [3] was 58.3%. The “Effect on experimental pancreatitis Survival ratio(%) After 48 hours” value [3] was 58.3%, the “Effect on experimental pancreatitis (100 mg/kg p.o.) After 24 hours” value [3] was 58.3 and the “Effect on experimental pancreatitis (100 mg/kg p.o.) After 48 hours” value [3] was 33.3. For the same compound, the LD50 (in vivo) was > 100 mg/kg and the half-life [4] was 10.6 min.
